According to article PMC4505863 (ACS Chemical Neuroscience, 2014):

How the values were obtained:
5-ht5a = 5-ht5a (Homo sapiens, UniProt P47898); assay: PDSP screening affinity 5-ht5a; assay type: binding; conditions: 5-ht5a affinity
5-HT2A receptor [1] = molecular target: T1, 5-HT2A receptor (Homo sapiens, UniProt P28223); assay: h5-HT2A affinity, agonist radioligand [125I]DOI; assay type: binding
5-HT6 = 5-HT6 (Homo sapiens, UniProt P50406); assay: PDSP screening affinity 5-HT6; assay type: binding
Sequence of 5-HT6 (P50406 whole entry): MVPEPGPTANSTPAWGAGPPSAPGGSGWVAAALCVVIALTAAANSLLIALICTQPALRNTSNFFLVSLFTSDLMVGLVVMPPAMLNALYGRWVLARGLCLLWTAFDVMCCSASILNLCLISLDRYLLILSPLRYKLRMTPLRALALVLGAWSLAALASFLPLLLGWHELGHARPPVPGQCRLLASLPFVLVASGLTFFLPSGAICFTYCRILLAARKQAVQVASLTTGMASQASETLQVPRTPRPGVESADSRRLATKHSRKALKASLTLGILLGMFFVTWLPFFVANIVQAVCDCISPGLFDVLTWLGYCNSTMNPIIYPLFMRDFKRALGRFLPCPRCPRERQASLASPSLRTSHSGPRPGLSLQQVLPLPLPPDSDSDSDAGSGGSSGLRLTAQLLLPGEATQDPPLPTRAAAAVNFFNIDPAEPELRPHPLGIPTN

5-HT7 = 5-HT7 (Homo sapiens, UniProt P34969); assay: PDSP screening affinity 5-HT7; assay type: binding
Sequence of 5-HT7 (P34969 whole entry): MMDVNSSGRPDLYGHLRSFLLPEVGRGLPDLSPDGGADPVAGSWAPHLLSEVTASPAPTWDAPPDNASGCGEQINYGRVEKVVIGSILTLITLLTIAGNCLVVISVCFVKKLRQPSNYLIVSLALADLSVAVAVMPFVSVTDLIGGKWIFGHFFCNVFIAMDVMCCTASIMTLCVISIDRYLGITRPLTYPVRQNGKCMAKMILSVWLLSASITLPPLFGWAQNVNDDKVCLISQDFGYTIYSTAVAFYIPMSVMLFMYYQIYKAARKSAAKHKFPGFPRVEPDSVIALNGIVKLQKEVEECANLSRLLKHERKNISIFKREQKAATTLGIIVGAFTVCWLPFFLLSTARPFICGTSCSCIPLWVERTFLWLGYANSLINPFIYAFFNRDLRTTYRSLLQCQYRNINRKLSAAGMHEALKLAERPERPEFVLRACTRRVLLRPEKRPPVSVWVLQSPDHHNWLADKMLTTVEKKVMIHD

5-HT2A receptor [2] = molecular target: T1, 5-HT2A receptor; assay: h5-HT2A affinity, antagonist radioligand [3H]ketanserin; assay type: binding
5-HT3 = molecular target: T2, 5-HT3 (Homo sapiens, UniProt P46098); assay: PDSP screening affinity 5-HT3; assay type: binding
T2 sequence (P46098 24-478): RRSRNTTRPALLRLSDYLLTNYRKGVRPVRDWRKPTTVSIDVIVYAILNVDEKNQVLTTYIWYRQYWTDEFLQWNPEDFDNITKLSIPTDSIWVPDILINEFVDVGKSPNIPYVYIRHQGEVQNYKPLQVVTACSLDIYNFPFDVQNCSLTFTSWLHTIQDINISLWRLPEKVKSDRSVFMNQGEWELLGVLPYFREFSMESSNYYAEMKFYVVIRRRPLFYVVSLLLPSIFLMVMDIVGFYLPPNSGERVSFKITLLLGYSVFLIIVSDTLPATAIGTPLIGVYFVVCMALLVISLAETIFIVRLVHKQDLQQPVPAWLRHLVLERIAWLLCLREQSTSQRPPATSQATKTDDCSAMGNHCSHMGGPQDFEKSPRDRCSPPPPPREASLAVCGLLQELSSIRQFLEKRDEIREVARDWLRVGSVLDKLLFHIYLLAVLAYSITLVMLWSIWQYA

human 5-HT2C receptor [3] = molecular target: T3, human 5-HT2C receptor (Homo sapiens, UniProt P28335); assay: h5-HT2C affinity, agonist radioligand [125I]DOI; assay type: binding
T3 sequence (P28335 33-458): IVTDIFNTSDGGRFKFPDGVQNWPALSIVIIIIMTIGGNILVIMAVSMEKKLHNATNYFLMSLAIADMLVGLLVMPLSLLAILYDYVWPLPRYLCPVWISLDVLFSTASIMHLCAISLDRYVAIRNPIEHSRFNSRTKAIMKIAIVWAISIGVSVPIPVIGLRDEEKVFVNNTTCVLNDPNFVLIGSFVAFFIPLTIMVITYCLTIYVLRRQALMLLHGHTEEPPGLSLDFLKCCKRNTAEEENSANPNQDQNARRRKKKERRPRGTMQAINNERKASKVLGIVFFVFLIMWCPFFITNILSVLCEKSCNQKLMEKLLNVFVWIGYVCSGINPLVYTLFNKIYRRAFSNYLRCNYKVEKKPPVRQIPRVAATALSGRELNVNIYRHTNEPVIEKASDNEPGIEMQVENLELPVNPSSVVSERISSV

r5-HT2A = r5-HT2A (Rattus norvegicus, UniProt P14842); assay: Ca2+ mobilization assay; assay type: cell-based; conditions: for EC50: r5-HT2A EC50, Ca2+ mobilization; for Emax: read-out: r5-HT2A Emax, percentage of the maximum response to 5-HT
Sequence of r5-HT2A (P14842 whole entry): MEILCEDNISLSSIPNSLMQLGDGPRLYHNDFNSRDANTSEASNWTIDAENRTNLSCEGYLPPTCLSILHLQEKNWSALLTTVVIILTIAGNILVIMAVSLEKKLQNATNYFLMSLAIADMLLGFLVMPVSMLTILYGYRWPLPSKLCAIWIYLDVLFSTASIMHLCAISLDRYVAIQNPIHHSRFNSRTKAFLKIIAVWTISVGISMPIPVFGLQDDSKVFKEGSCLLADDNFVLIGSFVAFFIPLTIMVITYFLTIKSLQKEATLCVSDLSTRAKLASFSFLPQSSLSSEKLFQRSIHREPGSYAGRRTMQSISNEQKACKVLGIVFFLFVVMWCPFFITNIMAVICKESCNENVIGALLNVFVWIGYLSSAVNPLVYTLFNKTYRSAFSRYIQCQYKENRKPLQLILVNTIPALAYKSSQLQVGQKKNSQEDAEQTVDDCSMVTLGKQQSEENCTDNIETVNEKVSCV

h5-HT2A = h5-HT2A (Homo sapiens, UniProt P28223); assay: Ca2+ mobilization assay; assay type: cell-based; conditions: for Emax: HEK293, read-out: h5-HT2A Emax, percentage of the maximum response to 5-HT
Sequence of h5-HT2A (P28223 whole entry): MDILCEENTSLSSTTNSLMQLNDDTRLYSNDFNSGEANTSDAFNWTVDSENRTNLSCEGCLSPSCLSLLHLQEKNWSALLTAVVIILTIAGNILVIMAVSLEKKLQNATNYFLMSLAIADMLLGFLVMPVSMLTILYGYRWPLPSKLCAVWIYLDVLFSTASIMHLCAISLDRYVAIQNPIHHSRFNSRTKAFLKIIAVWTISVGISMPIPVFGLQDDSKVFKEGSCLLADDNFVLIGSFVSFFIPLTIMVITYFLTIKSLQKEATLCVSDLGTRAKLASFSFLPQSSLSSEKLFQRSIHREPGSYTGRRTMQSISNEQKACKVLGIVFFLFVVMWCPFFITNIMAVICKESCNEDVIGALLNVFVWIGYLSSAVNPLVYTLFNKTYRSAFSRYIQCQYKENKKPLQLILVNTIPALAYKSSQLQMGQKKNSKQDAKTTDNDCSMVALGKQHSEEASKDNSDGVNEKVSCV

h5-HT2B = h5-HT2B (Homo sapiens, UniProt P41595); assay: Ca2+ mobilization assay; assay type: cell-based; conditions: for Emax: HEK293, read-out: h5-HT2B Emax
Sequence of h5-HT2B (P41595 whole entry): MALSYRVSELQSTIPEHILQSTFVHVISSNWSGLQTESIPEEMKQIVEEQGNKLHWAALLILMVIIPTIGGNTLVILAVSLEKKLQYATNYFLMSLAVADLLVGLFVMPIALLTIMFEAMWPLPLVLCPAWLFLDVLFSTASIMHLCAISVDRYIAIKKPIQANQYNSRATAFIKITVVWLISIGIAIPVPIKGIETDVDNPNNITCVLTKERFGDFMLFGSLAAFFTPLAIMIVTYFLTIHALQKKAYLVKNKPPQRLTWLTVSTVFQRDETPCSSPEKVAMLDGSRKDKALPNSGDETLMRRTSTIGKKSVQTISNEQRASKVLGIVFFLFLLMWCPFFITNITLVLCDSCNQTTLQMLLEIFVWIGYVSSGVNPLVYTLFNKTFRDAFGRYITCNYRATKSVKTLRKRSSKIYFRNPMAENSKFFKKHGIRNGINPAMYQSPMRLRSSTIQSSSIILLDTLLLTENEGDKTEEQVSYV

h5-HT2C = molecular target: T4, h5-HT2C (Homo sapiens, UniProt P28335); assay: Ca2+ mobilization assay; assay type: cell-based; conditions: for Emax: HEK293, read-out: h5HT2C Emax; for EC50: h5HT2C EC50, Ca2+ mobilization
T4 sequence (P28335 33-458): T3 sequence (P28335 33-458)

5-HT1D = 5-HT1D (Homo sapiens, UniProt P28221); assay: PDSP screening affinity 5-HT1D; assay type: binding
Sequence of 5-HT1D (P28221 whole entry): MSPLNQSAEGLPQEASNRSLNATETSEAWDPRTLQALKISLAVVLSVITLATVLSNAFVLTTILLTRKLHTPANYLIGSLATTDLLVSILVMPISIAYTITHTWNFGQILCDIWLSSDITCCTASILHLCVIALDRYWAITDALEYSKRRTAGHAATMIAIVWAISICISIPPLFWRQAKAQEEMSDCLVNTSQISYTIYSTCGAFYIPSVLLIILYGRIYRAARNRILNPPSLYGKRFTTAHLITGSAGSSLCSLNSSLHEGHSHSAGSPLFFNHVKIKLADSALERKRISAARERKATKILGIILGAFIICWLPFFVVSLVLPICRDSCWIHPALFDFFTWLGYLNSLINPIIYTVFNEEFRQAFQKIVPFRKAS

Male C57BL/6J mice = assay: Mouse head twitch response; conditions: for max counts: HTR counts; for ED50: Mus musculus, sc, read-out: ED50 mg/kg (95% CI), mouse head twitch; for magnitude of peak effect × vehicle / maximally effective dose: mouse head twitch
r5-HT2C = molecular target: T5, r5-HT2C (Rattus norvegicus, UniProt P08909); assay: Ca2+ mobilization assay; assay type: cell-based; conditions: for Emax: read-out: r5-HT2C Emax
T5 sequence (P08909 33-460): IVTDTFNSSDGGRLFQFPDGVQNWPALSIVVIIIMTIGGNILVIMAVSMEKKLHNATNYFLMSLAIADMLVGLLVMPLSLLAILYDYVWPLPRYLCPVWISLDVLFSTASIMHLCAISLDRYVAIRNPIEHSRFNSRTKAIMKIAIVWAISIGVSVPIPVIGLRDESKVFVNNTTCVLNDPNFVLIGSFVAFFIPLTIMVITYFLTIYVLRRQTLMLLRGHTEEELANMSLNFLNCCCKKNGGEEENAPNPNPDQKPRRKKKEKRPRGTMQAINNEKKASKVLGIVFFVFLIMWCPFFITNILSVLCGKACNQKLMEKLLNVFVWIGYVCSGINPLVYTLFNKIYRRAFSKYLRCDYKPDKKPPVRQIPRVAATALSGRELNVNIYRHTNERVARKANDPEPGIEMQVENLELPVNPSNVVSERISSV

5-ht1e = 5-ht1e (Homo sapiens, UniProt P28566); assay: PDSP screening affinity 5-ht1e; assay type: binding
Sequence of 5-ht1e (P28566 whole entry): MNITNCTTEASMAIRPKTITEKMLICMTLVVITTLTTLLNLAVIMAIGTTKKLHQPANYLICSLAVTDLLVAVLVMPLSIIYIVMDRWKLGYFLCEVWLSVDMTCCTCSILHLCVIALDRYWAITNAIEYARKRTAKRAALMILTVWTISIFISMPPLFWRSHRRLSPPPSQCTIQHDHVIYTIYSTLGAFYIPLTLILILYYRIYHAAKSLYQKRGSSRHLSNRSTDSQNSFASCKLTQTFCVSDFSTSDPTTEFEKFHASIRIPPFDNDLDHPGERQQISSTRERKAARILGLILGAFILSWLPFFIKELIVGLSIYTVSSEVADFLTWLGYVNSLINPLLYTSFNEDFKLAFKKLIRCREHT

5-HT2B = 5-HT2B (Homo sapiens, UniProt P41595); assay: PDSP screening affinity 5-HT2B; assay type: binding
Sequence of 5-HT2B (P41595 whole entry): as the sequence (P41595 whole entry) above

5-HT1A = molecular target: T6, 5-HT1A (Homo sapiens, UniProt P08908); assay: PDSP screening affinity 5-HT1A; assay type: binding; conditions: 5-HT1A affinity
T6 sequence (P08908 1-422): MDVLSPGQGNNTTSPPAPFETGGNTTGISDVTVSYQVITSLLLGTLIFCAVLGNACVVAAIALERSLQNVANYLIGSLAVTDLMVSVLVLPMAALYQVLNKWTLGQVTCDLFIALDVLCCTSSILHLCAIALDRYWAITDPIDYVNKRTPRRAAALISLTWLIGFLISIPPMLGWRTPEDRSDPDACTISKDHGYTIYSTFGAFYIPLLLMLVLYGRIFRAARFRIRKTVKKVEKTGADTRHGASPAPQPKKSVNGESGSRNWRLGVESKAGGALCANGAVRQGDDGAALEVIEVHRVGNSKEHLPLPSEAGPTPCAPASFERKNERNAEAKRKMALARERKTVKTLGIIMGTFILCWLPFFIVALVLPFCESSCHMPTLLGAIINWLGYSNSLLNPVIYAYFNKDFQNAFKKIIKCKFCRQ

5-HT1B = 5-HT1B (Homo sapiens, UniProt P28222); assay: PDSP screening affinity 5-HT1B; assay type: binding; conditions: 5-HT1B affinity
Sequence of 5-HT1B (P28222 whole entry): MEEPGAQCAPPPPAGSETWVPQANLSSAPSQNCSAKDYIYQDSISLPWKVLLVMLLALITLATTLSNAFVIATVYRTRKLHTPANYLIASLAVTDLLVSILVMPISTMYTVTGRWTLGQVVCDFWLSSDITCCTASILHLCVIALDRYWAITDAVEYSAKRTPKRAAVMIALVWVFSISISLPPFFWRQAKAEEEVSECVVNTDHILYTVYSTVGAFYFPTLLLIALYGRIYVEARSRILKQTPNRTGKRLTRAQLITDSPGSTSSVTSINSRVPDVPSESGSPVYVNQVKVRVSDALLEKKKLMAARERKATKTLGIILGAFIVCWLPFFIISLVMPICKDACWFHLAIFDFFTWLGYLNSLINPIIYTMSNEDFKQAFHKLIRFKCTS

human 5-HT2C receptor [4] = molecular target: T3, human 5-HT2C receptor; assay: h5-HT2C affinity, antagonist radioligand [3H]mesulergine; assay type: binding
[5] = h5-HT2B EC50, Ca2+ mobilization
[6] = r5-HT2C EC50, Ca2+ mobilization

Sequence of 5-ht5a (P47898 whole entry): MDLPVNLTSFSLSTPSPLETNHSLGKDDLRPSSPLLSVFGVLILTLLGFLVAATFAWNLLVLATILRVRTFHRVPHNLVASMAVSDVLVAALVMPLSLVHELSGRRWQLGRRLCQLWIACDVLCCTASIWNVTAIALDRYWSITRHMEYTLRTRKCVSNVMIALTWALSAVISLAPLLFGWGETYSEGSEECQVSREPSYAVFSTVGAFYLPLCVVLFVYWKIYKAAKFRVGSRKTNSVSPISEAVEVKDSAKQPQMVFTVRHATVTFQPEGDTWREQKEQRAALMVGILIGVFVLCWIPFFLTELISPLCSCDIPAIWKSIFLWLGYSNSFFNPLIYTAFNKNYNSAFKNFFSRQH
T1 sequence (P28223 whole entry): as the sequence (P28223 whole entry) above

| SMILES | Ki (5-ht5a) | Ki (5-HT6; 5-HT6 affinity) | Ki (5-HT7; 5-HT7 affinity) | Ki (5-HT2A receptor [2]) | Ki (5-HT3) | Ki (human 5-HT2C receptor [3]) | EC50 (r5-HT2A) | Emax (r5-HT2A) | EC50 (h5-HT2A) | Emax (h5-HT2A) | Emax (h5-HT2B) | Emax (h5-HT2C) | EC50 (h5-HT2C) | Ki (5-HT1D) | EC50 (r5-HT2C; [6]) | Emax (r5-HT2C) | Ki (5-ht1e) | Ki (5-HT2B; 5-HT2B pKi ± SEM) | Ki (5-HT1A) | Ki (5-HT1B) | other results |
| --- | --- | --- | --- | --- | --- | --- | --- | --- | --- | --- | --- | --- | --- | --- | --- | --- | --- | --- | --- | --- | --- |
| COc1ccc2[nH]cc(CCNCc3cccc(Br)c3)c2c1 [Compound 5e, N-(3-Bromobenzyl)-2-(5-methoxy-1H-indol-3-yl)ethan-1-amine] | 612 nM | 45 nM | 116 nM | 6.76 nM | > 10000 nM | 5.62 nM | 130 nM | 65.5 ± 0.8% | 13 nM | 73.8 ± 1.1% | 20 ± 2% | 64 ± 8% | 321 nM | 381 nM | 422 nM | 112 ± 3% | > 10000 nM | 3.55 nM | 155 nM | 6430 nM | Ki (5-HT2A receptor [1]): 1.48 nM; Ki (5-HT6; 5-HT6 pKi ± SEM): 45.7 nM; Ki (5-HT7; 5-HT7 pKi ± SEM): 117 nM; EC50 (h5-HT2B; [5]): 29 nM; max counts (Male C57BL/6J mice; SC): 14.2; ED50 (Male C57BL/6J mice): 5.18 mg/kg; activity in the HTR assay (active / inactive) (Male C57BL/6J mice; SC, doses up to 30 mg/kg): active; magnitude of peak effect × vehicle (Male C57BL/6J mice; SC): 4.4 × vehicle; maximally effective dose (Male C57BL/6J mice; SC): 30 mg/kg; EC50 (r5-HT2C; r5-HT2C pEC50 ± SEM, Ca2+ mobilization): 417 nM; Ki (5-HT2B; 5-HT2B affinity): 3.6 nM |
| COc1ccc2[nH]cc(CCNCc3cccc(C(F)(F)F)c3)c2c1 [Compound 5k, N-(3-Trifluoromethylbenzyl)-2-(5-methoxy-1H-indol-3-yl)ethan-1-amine] | 3090 nM | 87 nM | 262 nM | 28.2 nM | > 10000 nM | 14.8 nM | 770 nM | 69.6 ± 1.4% | 87 nM | 75.5 ± 1.2% | 51 ± 2% | 75 ± 5% | 512 nM | 278 nM | 162 nM | 104 ± 2% | > 10000 nM | 27.5 nM | 240 nM | > 10000 nM | Ki (human 5-HT2C receptor [4]): 102 nM; Ki (5-HT2A receptor [1]): 2.95 nM; EC50 (h5-HT2B; [5]): 107 nM |
| COc1ccc2[nH]cc(CCNCc3cccc(F)c3)c2c1 [Compound 5g, N-(3-Fluorobenzyl)-2-(5-methoxy-1H-indol-3-yl)ethan-1-amine] | 2450 nM | 59 nM | 242 nM | 21.4 nM | > 10000 nM | 8.71 nM | 80 nM | 69.1 ± 1.3% | 10 nM | 89.3 ± 1.1% | 37 ± 1% | 83 ± 5% | 192 nM | 319 nM | 46 nM | 100 ± 3% | > 10000 nM | 21.9 nM | 295 nM | 2670 nM | Ki (human 5-HT2C receptor [4]): 47.9 nM; EC50 (h5-HT2B; h5-HT2B pEC50 ± SEM, Ca2+ mobilization, NA = not active, Emax ≤ 15%): 38 nM; max counts (Male C57BL/6J mice; SC): 14.5; ED50 (Male C57BL/6J mice): 3.33 mg/kg; magnitude of peak effect × vehicle (Male C57BL/6J mice; SC): 7.3 × vehicle; maximally effective dose (Male C57BL/6J mice; SC): 10 mg/kg |
